From patent publication US4405717A, “Recovery of acetic acid from a fermentation broth” (priority 1981, dated 1983)
Like-named read-outs stand apart in the source and are kept apart here. Values belong to the compound of their own block, whether it stands above or below them.

How the values were obtained:
[1] = for dissolution of the amine: aqueous calcium acetate solution, carbon dioxide added
Description: In carrying out the process of this invention, a molar equivalent of a water-soluble tertiary amine carbonate is added to the calcium acetate solution. The tertiary amine carbonate used in the process can be generated by the addition of carbon dioxide to a solution or suspension of the tertiary amine in water. It is most convenient to generate the tertiary amine carbonate in situ by first adding a molar equivalent of the tertiary amine to the calcium acetate solution. Then carbon dioxide is added to the mixture to generate the tertiary amine carbonate directly in the calcium acetate solution. The addition of the carbon dioxide is carried out by any convenient means. Either solid or gaseous carbon dioxide is added to the solution at atmospheric pressure or at higher pressures in a pressure vessel.
To a solution of 20 g of acetic acid and 400 ml of water was added 16 g of calcium carbonate. […] To this was added 62 g of tributylamine.

[2] = Extraction of trialkylammonium acetates: distribution coefficient (KD) between water and solvents; assay type: physicochemical; settings: conclusion from Table I
Description: In one embodiment of this invention, the trialkylammonium acetate is extracted from the solution by means of an organic solvent. Polar solvents, such as esters, alcohols, ketones, ethers or chlorinated hydrocarbons can be used. The solvents should be insoluble or sparingly soluble in water and be good extractants for the acetate. This extraction ability is determined by measuring the amount of acetic acid in each phase when an acetate solution is extracted with an equal volume of extractant. The extraction ability is expressed as a Distribution Coefficient (KD) which is defined by the formula: [formula] The solvent should have a KD greater than about 0.4 and preferably greater than about 1.
The efficiency with which trialkylammonium acetates could be extracted from water solutions with various solvents was measured by determination of the KD of the salts between water and the solvents according to the following procedure:
A mixture of 50 ml of a 5% aqueous solution of the acetate formed by the procedure of Example 1 and 50 ml of solvent in a 250-ml Erlenmeyer flask was shaken in a wrist-action shaker for 2 hours at room temperature. The mixture was transferred to a separatory funnel where it was allowed to stand for an additional hour before the phases were separated, weighed and analyzed. […]

[3] = Thermal decomposition (dissociation) of trialkylammonium acetates; assay type: physicochemical
Description: In the final step of the process, the trialkylammonium acetate is heated to cause dissociation of the acetate with liberation of acetic acid and the amine. The temperature at which the acetate decomposes depends somewhat on the tertiary amine used. When tributylamine is employed, the acetate decomposes when held in a bath in the range of about 170°-190° C. with distillation of the acetic acid in a relatively pure form. The residue after distillation of the acid is tributylamine which can be recycled for use in the extraction process.
The syrup obtained in Example 1 was placed in a flask fitted with a 7-cm Vigreux column attached to a water-cooled condenser. The flask was heated in an oil bath to 180° C. at which temperature decomposition of the acetate occurred. The yield of acetic acid distilling at 115°-118° C. was 18.3 g which represents a 91.5% recovery of the acetic acid present in the solution.
When the process of Example 2 was repeated with the syrups containing trimethylammonium acetate, triethylammonium acetate and tripropylammonium acetate, the products that were obtained were either azeotropes or mixtures of the tertiary amine and acetic acid.

SMILES: CN(C)c1ccncc1 [4-dimethylaminopyridine]
- dissolution of the amine [1]: all of the amine went into solution

SMILES: CC(=O)O.CCCCN(CCCC)CCCC [Tributylammonium Acetate, tributylammonium acetate]
- extraction from water with the solvents (in words) [2]: much more efficient than any of the other combinations
- decomposition temperature of the acetate ([3]; heated in an oil bath, Example 2): 180 °C

SMILES: CN(C1CCCCC1)C1CCCCC1 [dicyclohexylmethylamine]
- dissolution of the amine [1]: all of the amine went into solution

SMILES: CCCCCCCCCCCCN(C)C [dimethyldodecylamine, N,N-dimethyldodecylamine]
- behaviour of the salt on distillation ([3]; salts prepared from long-chain amines): distillation was accompanied by unknown side-reactions

- dissolution of the amine [1]: the amine did not dissolve
SMILES: CCCCCN(CCCCC)CCCCC [triamylamine]

SMILES: CCCCN(CCCC)CCCC [tributylamine]
- dissolution of the amine ([1]; listed as Tributylamine): dissolves readily

- dissolution of the amine [1]: the amine did not dissolve
SMILES: CCCCCCN(CCCCCC)CCCCCC [trihexylamine]
- water solubility of the amine carbonate [1]: do not form carbonates which are sufficiently soluble in water

- dissolution of the amine [1]: the amine did not dissolve
SMILES: CC(C)CCCCCN(CCCCCC(C)C)CCCCCC(C)C [triisooctylamine]

SMILES: CN(C)C [trimethylamine]
- water solubility of the amine carbonate ([1]; general statement): form carbonates which are water soluble

SMILES: CCCCCCCCN(CCCCCCCC)CCCCCCCC [trioctylamine]
- water solubility of the amine carbonate [1]: do not form carbonates which are sufficiently soluble in water

- water solubility of the amine carbonate [1]: form carbonates which are water soluble
- dissolution of the amine [1]: all of the amine went into solution
SMILES: CCCN(CCC)CCC [tripropylamine]
